Measurements from patent US5140009A (Tap Pharmaceuticals, Inc., priority 1990, dated 1992).
Where two headings read alike, the source gives them in different places. Numbered stars: 1 amine (or outer) side, 2 acyl side, 3 side chain; on linkers, the order of the positions; unused ones are H or OH. Square brackets hold non-standard residues; d marks the D form. Peptide text beside a SMILES is read from it. * marks the point of attachment. Propanoyl(3-(1-naphthyl)) = O=C(CCc1cccc2ccccc12)*; Propanoyl(3-indol-3-yl) = O=C(CCc1c[nH]c2ccccc12)*; Propanoyl(3-(3,4-F2Ph)) = O=C(CCc1ccc(F)c(F)c1)*; Propanoyl(3-(4-F-phenyl)) = O=C(CCc1ccc(F)cc1)*; Propanoyl(3-(4-Cl-Ph)) = O=C(CCc1ccc(Cl)cc1)*; Phenylacetyl(4-Cl) = O=C(Cc1ccc(Cl)cc1)*; 1Nal = N[C@@H](Cc1cccc2ccccc12)C(=O)O; d1Nal = N[C@H](Cc1cccc2ccccc12)C(=O)O; Lys(iPr) = CC(C)NCCCC[C@H](N)C(=O)O; NMeY = CN[C@@H](Cc1ccc(O)cc1)C(=O)O; d3Pal = N[C@H](Cc1cccnc1)C(=O)O; d2Thi = N[C@H](Cc1cccs1)C(=O)O; Nicotinoyl = O=C(c1cccnc1)*; dOrn = NCCC[C@@H](N)C(=O)O; X9 = O=C(CCc1ccc(Br)cc1)*; Morpholide = C1CN(*)CCO1; CO = O=C([*:1])[*:2]; Bn = c1ccc(C*)cc1

Biological target: T1, LHRH receptors (Rattus norvegicus, UniProt P30969)
T1 construct: Pituitary membranes containing LHRH receptors are prepared in batches from quick-frozen rat pituitaries; tissue Hilltop Labs; host or cells: rat pituitary membranes
T1 sequence (P30969 1-327): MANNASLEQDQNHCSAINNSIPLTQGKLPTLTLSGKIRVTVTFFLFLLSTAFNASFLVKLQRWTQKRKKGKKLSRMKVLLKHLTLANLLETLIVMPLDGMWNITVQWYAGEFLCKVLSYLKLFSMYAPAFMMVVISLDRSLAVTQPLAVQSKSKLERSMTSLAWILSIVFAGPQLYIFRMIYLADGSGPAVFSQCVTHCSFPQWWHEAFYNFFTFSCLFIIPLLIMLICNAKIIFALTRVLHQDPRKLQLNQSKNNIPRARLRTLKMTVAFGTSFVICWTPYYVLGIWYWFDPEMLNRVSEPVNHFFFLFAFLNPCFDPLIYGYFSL
Assay: Receptor Binding (radioligand receptor binding assay)
Conditions: rat pituitary membranes, 2 hours at 4° C., read-out: Receptor Binding pkI (converted)

[1] = table 3, radioiodinated [D-Leu^6 -des Gly^10 ]-LHRH ethyl amide 50 pM

Ki (table 4, radioligand 50 pM) [nM]	Ki [1] [nM]	SMILES
0.0282		CCNC(=O)[C@@H]1CCCN1C(=O)[C@H](CCCN=C(N)N)NC(=O)[C@H](CC(C)C)NC(=O)[C@@H](Cc1c[nH]c2ccccc12)NC(=O)[C@H](Cc1ccc(O)cc1)NC(=O)[C@H](CO)NC(=O)[C@@H](Cc1c[nH]c2ccccc12)NC(=O)CCc1ccc(F)c(F)c1 [Compound 151, (3-9)[N-(3-(3,4-diFluorophenyl)propionyl) -D-Trp^3,6 -Pro^9 NHEt]LHRH] ({Propanoyl(3-(3,4-F2Ph))}-[dW]SY[dW]LRP-NHEt)
0.0355		CCNC(=O)[C@@H]1CCCN1C(=O)[C@H](CCCNC(=N)N)NC(=O)[C@H](CC(C)C)NC(=O)[C@@H](Cc1c[nH]c2ccccc12)NC(=O)[C@H](Cc1ccc(O)cc1)NC(=O)[C@H](CO)NC(=O)[C@H](Cc1cccc2ccccc12)NC(=O)[C@H](Cc1ccccc1)NC(=O)N1CCOCC1 [Compound 237, (2-9)[N-(alpha-Morpholinocarbonyl)-Phe^2-1-Nal^3 -D-Trp^6 -Pro^9 NHEt]LHRH] ({Morpholide-CO}-F[1Nal]SY[dW]LRP-NHEt)
0.138		CC(C)C[C@H](NC(=O)[C@@H](Cc1cccnc1)NC(=O)[C@H](Cc1ccc(O)cc1)NC(=O)[C@H](COCc1ccccc1)NC(=O)[C@@H](Cc1cccc2ccccc12)NC(=O)CCc1ccc(F)cc1)C(=O)N[C@@H](CCCCNC(C)C)C(=O)N1CCC[C@H]1C(=O)N[C@H](C)C(N)=O [Compound 202, (3-10)[N-(3-(4-Fluorophenyl)propionyl)-D-1-Nal^3 -Ser^4 (O-Bzl)-D-3-Pal^6 -Lys^8 (N-epsilon-isopropyl)-D-Ala^10]LHRH] ({Propanoyl(3-(4-F-phenyl))}-[d1Nal]S(Bn)Y[d3Pal]L[Lys(iPr)]P[dA]-NH2)
	0.0174	CCNC(=O)[C@@H]1CCCN1C(=O)[C@H](CCCN=C(N)N)NC(=O)[C@H](CC(C)C)NC(=O)[C@@H](Cc1c[nH]c2ccccc12)NC(=O)[C@H](Cc1ccc(O)cc1)NC(=O)[C@H](CO)NC(=O)[C@@H](Cc1ccc(O)cc1)NC(=O)CCc1ccc(Cl)cc1 [Compound 86, (3-9)[N-(3-(4-Chlorophenyl)propionyl)-D -Tyr^3 -D-Trp^6 -Pro^9 NHEt]LHRH] ({Propanoyl(3-(4-Cl-Ph))}-[dY]SY[dW]LRP-NHEt)
	0.832	CCNC(=O)[C@@H]1CCCN1C(=O)[C@H](CCCNC(=N)N)NC(=O)[C@H](CC(C)C)NC(=O)[C@@H](Cc1c[nH]c2ccccc12)NC(=O)[C@H](Cc1ccc(O)cc1)NC(=O)[C@H](CO)NC(=O)[C@H](Cc1c[nH]c2ccccc12)NC(=O)Cc1ccc(Cl)cc1 [Compound 104, (3-9)[N-(4-Chlorophenyl)acetyl-Trp^3 -D-Trp^6 -Pro^9 NHEt]LHRH] ({Phenylacetyl(4-Cl)}-WSY[dW]LRP-NHEt)
	0.123	CCNC(=O)[C@@H]1CCCN1C(=O)[C@H](CCCNC(=N)N)NC(=O)[C@H](CC(C)C)NC(=O)[C@@H](Cc1c[nH]c2ccccc12)NC(=O)[C@H](Cc1ccc(O)cc1)NC(=O)[C@H](CO)NC(=O)C(Cc1cccc2ccccc12)NC(C)=O (single isomer, unassigned) [Compound 83, (3-9) [N-Ac-1-Nal^3 -D-Trp^6 -Pro^9 NHEt]LHRH]
	0.00575	CCNC(=O)[C@@H]1CCCN1C(=O)[C@H](CCCNC(=N)N)NC(=O)[C@H](CC(C)C)NC(=O)[C@@H](Cc1c[nH]c2ccccc12)NC(=O)[C@H](Cc1ccc(O)cc1)N(C)C(=O)[C@H](CO)NC(=O)[C@H](Cc1c[nH]c2ccccc12)NC(=O)[C@H](Cc1ccccc1)NC(=O)N1CCOCC1 [Compound 114, (2-9)[N-(N-alpha-Morpholinocarbonyl)-Phe^2 -N-Me-Tyr^5 -D-Trp^6-Pro^9 -NHEt]LHRH] ({Morpholide-CO}-FWS[NMeY][dW]LRP-NHEt)
0.0132		CC(C)C[C@H](NC(=O)[C@@H](CCCCNC(=O)c1cccnc1)NC(=O)[C@H](Cc1ccccc1)NC(=O)[C@H](CO)NC(=O)[C@@H](Cc1cccc2ccccc12)NC(=O)CCc1ccc(F)cc1)C(=O)N[C@@H](CCCCNC(C)C)C(=O)N1CCC[C@H]1C(=O)N[C@H](C)C(N)=O [Compound 252, (3-10)[N-(3-(4-Fluorophenyl)propionyl)-D-1-Nal^3 -Phe^5 -D-Lys^6 (N-epsilon-nicotinyl)-Lys^8 (N-epsilon-isopropyl)-D-Ala^10]LHRH] ({Propanoyl(3-(4-F-phenyl))}-[d1Nal]SF[dK](Nicotinoyl)L[Lys(iPr)]P[dA]-NH2)
0.832		CCNC(=O)N[C@@H](Cc1ccccc1)C(=O)N[C@@H](Cc1cccc2ccccc12)C(=O)N[C@@H](CO)C(=O)N[C@@H](Cc1ccc(O)cc1)C(=O)N[C@H](Cc1c[nH]c2ccccc12)C(=O)N[C@@H](CC(C)C)C(=O)N[C@@H](CCCNC(=N)N)C(=O)N1CCC[C@H]1C(=O)NCC [Compound 239, (2-9)[N-(alpha-Ethylaminocarbonyl)-Phe^2-1-Nal^3 -D-Trp^6 -Pro^9 NHEt]LHRH] ({NHEt-CO}-F[1Nal]SY[dW]LRP-NHEt)
	50.1	CCNC(=O)[C@@H]1CCCN1C(=O)[C@H](CCCNC(=N)N)NC(=O)[C@H](CC(C)C)NC(=O)[C@@H](Cc1cccs1)NC(=O)[C@H](Cc1ccc(O)cc1)NC(=O)[C@H](CO)NC(=O)CCc1c[nH]c2ccccc12 [Compound 80, (4-9)[N-(3-(3-Indole)propionyl) -Ser^4 -D-Thia^6 -Pro^9 NHEt]LHRH] ({Propanoyl(3-indol-3-yl)}-SY[d2Thi]LRP-NHEt)

Continued, compound first:

SMILES	Ki (table 4, radioligand 50 pM) [nM]	Ki [1] [nM]
CCNC(=O)[C@@H]1CCCN1C(=O)[C@H](CCCNC(=N)N)NC(=O)[C@H](CC(C)C)NC(=O)[C@@H](CCCCNC(=O)c1cccnc1)NC(=O)[C@H](Cc1ccc(O)cc1)NC(=O)[C@H](CO)NC(=O)CCc1c[nH]c2ccccc12 [Compound 52] ({Propanoyl(3-indol-3-yl)}-SY[dK](Nicotinoyl)LRP-NHEt)		21.9
CC(C)C[C@H](NC(=O)[C@@H](CCCN)NC(=O)[C@H](Cc1ccc(O)cc1)N(C)C(=O)[C@H](CO)NC(=O)[C@@H](Cc1cccc2ccccc12)NC(=O)CCc1ccc(F)cc1)C(=O)N[C@@H](CCCNC(=N)N)C(=O)N1CCC[C@H]1C(=O)N[C@H](C)C(N)=O [Compound 192, (3-10)[N-(3-(4-Fluorophenyl)propionyl)-D-1-Nal^3 -NMeTyr^5 -D-Orn^6 -D-Ala^10]LHRH] ({Propanoyl(3-(4-F-phenyl))}-[d1Nal]S[NMeY][dOrn]LRP[dA]-NH2)	0.00676	
CCNC(=O)[C@@H]1CCCN1C(=O)[C@H](CCCNC(=N)N)NC(=O)[C@H](CC(C)C)NC(=O)[C@@H](CCCNC(=N)N)NC(=O)[C@H](Cc1ccc(O)cc1)NC(=O)[C@H](COCc1ccccc1)NC(=O)CCc1cccc2ccccc12 [Compound 45, (4-9)[N-(3-(1-Naphthyl)propionyl)-Ser^4 (OBzl)-D-Arg^6 -Pro^9 -NHEt]LHRH] ({Propanoyl(3-(1-naphthyl))}-S(Bn)Y[dR]LRP-NHEt)		6.03
CCNC(=O)[C@@H]1CCCN1C(=O)[C@H](CCCNC(=N)N)NC(=O)[C@H](CC(C)C)NC(=O)[C@@H](Cc1c[nH]c2ccccc12)NC(=O)[C@H](Cc1ccc(O)cc1)NC(=O)[C@H](CO)NC(=O)C(Cc1cccc2ccccc12)NC(C)=O (single isomer, unassigned) [Compound 82, (3-9)[N-Ac-1-Nal^3 -D-Trp^6 -Pro^9 NHEt]LHRH]		0.295
CC(C)C[C@H](NC(=O)[C@@H](CCCCNC(=O)c1cccnc1)NC(=O)[C@H](Cc1ccc(O)cc1)N(C)C(=O)[C@H](CO)NC(=O)[C@@H](Cc1cccnc1)NC(=O)CCc1ccc(Cl)cc1)C(=O)N[C@@H](CCCCNC(C)C)C(=O)N1CCC[C@H]1C(=O)N[C@H](C)C(N)=O [Compound 194, (3-10)[N-(3-(4-Chlorophenyl)propionyl)-D-3-Pal^3 -NMeTyr^5 -D-Lys^6 (N-epsilon-nicotinyl)-Lys^8 (N-epsilon-isopropyl)-D-Ala^10]LHRH] ({Propanoyl(3-(4-Cl-Ph))}-[d3Pal]S[NMeY][dK](Nicotinoyl)L[Lys(iPr)]P[dA]-NH2)	0.191	
CC(C)C[C@H](NC(=O)[C@@H](CCCCNC(=O)c1cccnc1)NC(=O)[C@H](Cc1ccc(O)cc1)N(C)C(=O)[C@H](CO)NC(=O)[C@@H](Cc1cccs1)NC(=O)CCc1ccc(F)cc1)C(=O)N[C@@H](CCCNC(=N)N)C(=O)N1CCC[C@H]1C(=O)N[C@H](C)C(N)=O [Compound 161, N-[3-(4-Fluorophenyl)propionyl]-D-Thia-Ser-NMeTyr-D -Lys(N-epsilon-nicotinyl)-Leu-Arg-Pro-D-AlaNH2] ({Propanoyl(3-(4-F-phenyl))}-[d2Thi]S[NMeY][dK](Nicotinoyl)LRP[dA]-NH2)	0.0151	
CC(C)C[C@H](NC(=O)[C@@H](Cc1c[nH]c2ccccc12)NC(=O)[C@H](Cc1ccc(O)cc1)NC(=O)[C@H](CO)NC(=O)[C@@H](Cc1c[nH]c2ccccc12)NC(=O)CCc1ccc(F)cc1)C(=O)N[C@@H](CCCNC(=N)N)C(=O)N1CCC[C@H]1C(=O)N[C@H](C)C(N)=O [Compound 162, (3-10)[N-(3-(4-Fluorophenyl)propionyl)-D-Trp^3,6 -D-Ala^10]LHRH] ({Propanoyl(3-(4-F-phenyl))}-[dW]SY[dW]LRP[dA]-NH2)	0.0105	
CCNC(=O)[C@@H]1CCCN1C(=O)[C@H](CCCNC(=N)N)NC(=O)[C@H](CC(C)C)NC(=O)[C@@H](Cc1c[nH]c2ccccc12)NC(=O)[C@H](Cc1ccc(O)cc1)N(C)C(=O)[C@H](CO)NC(=O)[C@@H](Cc1cccc2ccccc12)NC(=O)CCc1ccc(Br)cc1 [Compound 159, (3-9)[N-(3-(4-Bromophenyl)propionyl)-D -1-Nal^3 -NMeTyr^5 -DTrp^6 -Pro^9 NHEt]LHRH] (X9-[d1Nal]S[NMeY][dW]LRP-NHEt)	0.0562	
